Where “and” joins values, the source holds several entries; their conditions need not be identical. Equal values may be shown once.
System: patients with moderate to severe MGD
Experiment: Clinical trial (Example 8): topical Spironolactone (3 mg/ml) in MGD, retrospective pre-post
Conditions: for improvement in self-reported global assessment scores / mean improvement in obstruction score / mean improvement in turbidity score / mean improvement in vascularity score / mean improvement in zone A score: positive = score decrease; for Anterior Blepharitis, mean change / Obstruction, mean change / Turbidity, mean change / Vascularity, mean change / Zone A, mean change / Anterior Blepharitis, Mean / Obstruction, Mean / Turbidity, Mean / Vascularity, Mean / Zone A, Mean: scale 0-4; for Subjective Global Assessment, mean change / Global Evaluation, Mean / Global Evaluation, mean change / Subjective Global Assessment, Mean: scale 0-10
[1] = baseline vs follow up 1, low Schirmer's, n=27
[2] = baseline vs follow up 1, low Schirmer's, n=27, scale 0-3
[3] = baseline vs follow up 1, normal Schirmer's, n=75
[4] = final follow-up, patients with >1 follow-ups, low Schirmer's, n=10
[5] = final follow-up, patients with >1 follow-ups, low Schirmer's, n=10, scale 0-3
[6] = final follow-up, patients with >1 follow-ups, normal Schirmer's, n=28
[7] = final follow-up, patients with >1 follow-ups, normal Schirmer's, n=28, scale 0-3
[8] = follow-up 1, low Schirmer's, n=27 (FIG. 10)
[9] = follow-up 1, normal Schirmer's, n=75 (FIG. 9)
[10] = follow-up 1, patients with >1 follow-ups, low Schirmer's, n=10
[11] = follow-up 1, patients with >1 follow-ups, low Schirmer's, n=10, scale 0-3
[12] = follow-up 1, patients with >1 follow-ups, normal Schirmer's, n=28
[13] = follow-up 1, patients with >1 follow-ups, normal Schirmer's, n=28, scale 0-3
[14] = follow-up 1 vs final follow-up, low Schirmer's, n=10
[15] = follow-up 1 vs final follow-up, low Schirmer's, n=10, scale 0-3
[16] = follow-up 1 vs final follow-up, normal Schirmer's, n=28
[17] = follow-up 1 vs final follow-up, normal Schirmer's, n=28, scale 0-3
[18] = post-treatment follow-up 1, low Schirmer's, n=27
[19] = post-treatment follow-up 1, low Schirmer's, n=27, scale 0-3
[20] = post-treatment follow-up 1, normal Schirmer's, n=75
[21] = post-treatment follow-up 1, normal Schirmer's, n=75, scale 0-3

CC(=O)SC1CC2=CC(=O)CCC2(C)C2CCC3(C)C(CCC34CCC(=O)O4)C12 (stereo not drawn) [spironolactone, 7α-acetylthio-3-oxo-17α-pregn-4-ene-21,17-carbolactone]
Schirmer's OD, mean change [1]: 2.61±7.03 mm and 2.611 mm | Schirmer's OS, mean change [1]: 2.33±4.74 mm and 2.327 mm | Vision OS, mean change [1]: −0.0198±0.078 log Mar units and −0.0198 log Mar units | improvement in self-reported global assessment scores [1]: 0.98±2.18 | mean improvement in obstruction score [1]: 0.39±1.48 | mean improvement in turbidity score [1]: 0.69±0.76 | mean improvement in vascularity score [1]: 0.33±0.55 | mean improvement in zone A score [1]: 0.63±1.21 | Keratitis OS Corneal, mean change [2]: 0±0.4 and 0 | Keratitis OS Nasal, mean change [2]: 0.15±0.70 and 0.1538 | Keratitis OS Temporal, mean change [2]: 0.038±0.56 and 0.03846 | Anterior Blepharitis, mean change [1]: 0.0±0.64 and 0 | Obstruction, mean change [1]: −0.3889 | Turbidity, mean change [1]: −0.6852 | Vascularity, mean change [1]: −0.3333 | Zone A, mean change [1]: −0.6296 | Subjective Global Assessment, mean change [1]: −0.9815 | Schirmer's OD, mean change [3]: 0.11±8.07 mm and 0.1096 mm | Schirmer's OS, mean change [3]: 0.92±9.43 mm and 0.9178 mm | improvement in self-reported global assessment scores [3]: 1.29±1.80 | mean improvement in obstruction score [3]: 0.36±0.90 | mean improvement in turbidity score [3]: 0.93±0.73 | mean improvement in vascularity score [3]: 0.31±0.713 | mean improvement in zone A score [3]: 0.53±0.83 | Keratitis OS Corneal, mean change (baseline vs follow up 1, normal Schirmer's, n=75, scale 0-3): 0±0.32 and 0 | Anterior Blepharitis, mean change [3]: 0.04±0.70 and 0.04 | Obstruction, mean change [3]: −0.3633 | Turbidity, mean change [3]: −0.9267 | Vascularity, mean change [3]: −0.31 | Zone A, mean change [3]: −0.5533 | Subjective Global Assessment, mean change [3]: −1.287 | Schirmer's OD, Mean [4]: 11.7±10.94 and 11.7 | Schirmer's OS, Mean [4]: 8.78±9.98 and 8.778 | Vision OD, Mean [4]: 0.13±0.15 log Mar units and 0.1264 log Mar units | Vision OS, Mean [4]: 0.11±0.11 log Mar units and 0.1059 log Mar units | Keratitis OD Corneal, Mean [5]: 0.0±0.0 and 0 | Keratitis OD Nasal, Mean [5]: 0.75±0.63 and 0.75 | Keratitis OD Temporal, Mean [5]: 0.7±0.71 and 0.7 | Keratitis OS Corneal, Mean [5]: 0.33±0.5 and 0.3333 | Keratitis OS Nasal, Mean [5]: 1.06±0.92 and 1.056 | Keratitis OS Temporal, Mean [5]: 0.83±0.79 and 0.8333 | Anterior Blepharitis, Mean [4]: 0.2±0.42 and 0.2 | Obstruction, Mean [4]: 0.75±0.42 and 0.75 | Turbidity, Mean [4]: 2.1±0.74 and 2.1 | Vascularity, Mean [4]: 1.4±0.77 and 1.4 | Zone A, Mean [4]: 2.8±0.79 and 2.8 | Global Evaluation, Mean [4]: 4.4±2.62 and 4.4 | Schirmer's OD, Mean [6]: 18.52±9.83 and 18.52 | Schirmer's OS, Mean [6]: 17.04±8.48 and 17.04 | Vision OD, Mean [6]: 0.05±0.18 log Mar units and 0.04593 log Mar units | Vision OS, Mean [6]: 0.05±0.12 log Mar units and 0.04933 log Mar units | Keratitis OD Corneal, Mean [7]: 0.0±0.0 and 0 | Keratitis OD Nasal, Mean [7]: 0.63±0.63 and 0.625 | Keratitis OD Temporal, Mean [7]: 0.55±0.60 and 0.5536 | Keratitis OS Corneal, Mean [7]: 0.16±0.49 and 0.1607 | Keratitis OS Nasal, Mean [7]: 0.75±0.57 and 0.75 | Keratitis OS Temporal, Mean [7]: 0.70±0.57 and 0.6964 | Anterior Blepharitis, Mean [6]: 0.32±0.78 and 0.3214 | Obstruction, Mean [6]: 1.05±0.71 and 1.054 | Turbidity, Mean [6]: 1.80±0.83 and 1.804 | Vascularity, Mean [6]: 1.13±0.91 and 1.125 | Zone A, Mean [6]: 2.71±0.80 and 2.714 | Global Evaluation, Mean [6]: 3.55±1.30 and 3.554 | increase in Schirmer's I scores (follow-up 1, low Schirmer's, n=27): approximately 40% | percent reduction in Global Evaluation score from baseline [8]: 22.98% | percent reduction in Turbidity score from baseline [8]: 30.70% | percent reduction in Vascularity score from baseline [8]: 30.48% | percent reduction in Zone A score from baseline [8]: 22.65% | percent reduction in Global Evaluation score from baseline [9]: 27.52% | percent reduction in Obstruction score from baseline [9]: 31.23% | percent reduction in Turbidity score from baseline [9]: 41.82% | percent reduction in Vascularity score from baseline [9]: 24.51% | percent reduction in Zone A score from baseline [9]: 19.86% | Schirmer's OD, Mean [10]: 8.8±6.7 and 8.8 | Schirmer's OS, Mean [10]: 7.22±5.19 and 7.222 | Vision OD, Mean [10]: 0.07±0.10 log Mar units and 0.06633 log Mar units | Vision OS, Mean [10]: 0.09±0.14 log Mar units and 0.08737 log Mar units | Keratitis OD Corneal, Mean [11]: 0.0±0.0 and 0 | Keratitis OD Nasal, Mean [11]: 0.60±0.66 and 0.6 | Keratitis OD Temporal, Mean [11]: 0.65±0.71 and 0.65 | Keratitis OS Corneal, Mean [11]: 0.22±0.44 and 0.2222 | Keratitis OS Nasal, Mean [11]: 1.28±0.57 and 1.278 | Keratitis OS Temporal, Mean [11]: 1.0±0.66 and 1 | Anterior Blepharitis, Mean [10]: 0.3±0.67 and 0.3 | Obstruction, Mean [10]: 1.35±1.06 and 1.35 | Turbidity, Mean [10]: 1.95±0.76 and 1.95 | Vascularity, Mean [10]: 1.1±0.88 and 1.1 | Zone A, Mean [10]: 2.55±0.98 and 2.55 | Global Evaluation, Mean [10]: 4.15±2.07 and 4.15 | Schirmer's OD, Mean [12]: 17.07±10.10 and 17.07 | Schirmer's OS, Mean [12]: 17.50±10.42 and 17.5 | Vision OD, Mean [12]: 0.07±0.20 log Mar units and 0.07437 log Mar units | Vision OS, Mean [12]: 0.09±0.15 log Mar units and 0.08826 log Mar units | Keratitis OD Corneal, Mean [13]: 0.0±0.0 and 0 | Keratitis OD Nasal, Mean [13]: 0.64±0.72 and 0.6429 | Keratitis OD Temporal, Mean [13]: 0.54±0.68 and 0.5357 | Keratitis OS Corneal, Mean [13]: 0.14±0.52 and 0.1429 | Keratitis OS Nasal, Mean [13]: 0.82±0.80 and 0.8214 | Keratitis OS Temporal, Mean [13]: 0.71±0.80 and 0.7143 | Anterior Blepharitis, Mean [12]: 0.29±0.50 and 0.2857 | Obstruction, Mean [12]: 1.12±0.83 and 1.116 | Turbidity, Mean [12]: 1.96±0.62 and 1.964 | Vascularity, Mean [12]: 1.42±0.84 and 1.42 | Zone A, Mean [12]: 2.59±0.82 and 2.589 | Global Evaluation, Mean [12]: 4.32±1.53 and 4.321 | Schirmer's OD, mean change [14]: 2.9±4.93 and 2.9 | Schirmer's OS, mean change [14]: 1.56±6.25 and 1.556 | Vision OD, mean change [14]: 0.06±0.10 log units and 0.06011 log units | Vision OS, mean change [14]: 0.02±0.07 log units and 0.0185 log units | mean improvement in obstruction score [14]: 0.6±1.13 | Keratitis OD Corneal, mean change [15]: 0 | Keratitis OD Nasal, mean change [15]: 0.15 | Keratitis OD Temporal, mean change [15]: 0.05 | Keratitis OS Corneal, mean change [15]: 0.1111 | Keratitis OS Nasal, mean change [15]: −0.2222 | Keratitis OS Temporal, mean change [15]: −0.1667 | Anterior Blepharitis, mean change [14]: −0.1±0.57 and −0.1 | Obstruction, mean change [14]: −0.6 | Turbidity, mean change [14]: 0.15±0.82 and 0.15 | Vascularity, mean change [14]: 0.3±0.63 and 0.3 | Zone A, mean change [14]: 0.25±0.75 and 0.25 | Global Evaluation, mean change [14]: 0.25±2.55 and 0.25 | Schirmer's OD, mean change [16]: 1.77±9.01 and 1.778 | improvement in self-reported global assessment scores [16]: 0.77±1.36 | mean improvement in obstruction score [16]: 0.06±0.87 | mean improvement in turbidity score [16]: 0.16±1.00 | mean improvement in vascularity score [16]: 0.29±0.79 | Keratitis OD Corneal, mean change [17]: 0.0±0.0 and 0 | Keratitis OD Temporal, mean change [17]: 0.017±0.57 and 0.01786 | Keratitis OS Corneal, mean change [17]: 0.018±0.21 and 0.01786 | Anterior Blepharitis, mean change [16]: 0.04±0.64 and 0.03571 | Obstruction, mean change [16]: −0.0625 | Turbidity, mean change [16]: −0.1607 | Vascularity, mean change [16]: −0.2946 | Zone A, mean change [16]: 0.13±0.69 and 0.125 | Global Evaluation, mean change [16]: −0.7679 | time to improved symptoms of ocular irritation (moderate to severe symptomatic MGD, 'as early as'): 2 weeks | side effects after topical administration (patients of the clinical trial): A small percentage of the patients reported a mild temporary burning sensation in the eye | Subjective Global Assessment, Mean (post-treatment follow-up 1, low Schirmer's (5 or less), n=27): 3.78±1.68 and 3.778 | Schirmer's OD, Mean [18]: 7.52±7.42 mm and 7.519 mm | Schirmer's OS, Mean [18]: 6.92±5.34 mm and 6.923 mm | Vision OD, Mean [18]: 0.05±0.12 log Mar units and 0.04681 log Mar units | Vision OS, Mean [18]: 0.13±0.30 log Mar units and 0.1307 log Mar units | Keratitis OD Corneal, Mean [19]: 0.07±0.38 and 0.07407 | Keratitis OD Nasal, Mean [19]: 0.93±0.84 and 0.9259 | Keratitis OD Temporal, Mean [19]: 0.74±0.91 and 0.7407 | Keratitis OS Corneal, Mean [19]: 0.15±0.37 and 0.1538 | Keratitis OS Nasal, Mean [19]: 1.19±0.87 and 1.192 | Keratitis OS Temporal, Mean [19]: 0.96±0.82 and 0.9615 | Anterior Blepharitis, Mean [18]: 0.41±0.71 and 0.4074 | Obstruction, Mean [18]: 1.13±1.05 and 1.13 | Turbidity, Mean [18]: 1.89±0.91 and 1.889 | Vascularity, Mean [18]: 0.93±0.829 and 0.9259 | Zone A, Mean [18]: 2.46±1.13 and 2.463 | Subjective Global Assessment, Mean (post-treatment follow-up 1, normal Schirmer's (>5), n=75): 4.03±1.57 and 4.033 | Schirmer's OD, Mean [20]: 16.47±9.75 mm and 16.47 mm | Schirmer's OS, Mean [20]: 16.95±9.61 mm and 16.95 mm | Vision OD, Mean [20]: 0.08±0.18 log Mar units and 0.07686 log Mar units | Vision OS, Mean [20]: 0.11±0.22 log Mar units and 0.1115 log Mar units | Keratitis OD Corneal, Mean [21]: 0.007±0.06 and 0.006757 | Keratitis OD Nasal, Mean [21]: 0.64±0.68 and 0.6419 | Keratitis OD Temporal, Mean [21]: 0.45±0.64 and 0.4527 | Keratitis OS Corneal, Mean [21]: 0.07±0.34 and 0.06757 | Keratitis OS Nasal, Mean [21]: 0.72±0.73 and 0.723 | Keratitis OS Temporal, Mean [21]: 0.57±0.69 and 0.5743 | Anterior Blepharitis, Mean [20]: 0.39±0.67 and 0.3867 | Obstruction, Mean [20]: 0.98±0.69 and 0.9833 | Turbidity, Mean [20]: 1.75±0.75 and 1.753 | Vascularity, Mean [20]: 1.11±0.829 and 1.11 | Zone A, Mean [20]: 2.51±0.88 and 2.513
